In ChEMBL document CHEMBL1800066 (J Med Chem, 2011):
In brackets after ≈: the same amount, converted by molar mass. Each block holds one molecule with its values, some of them ahead of it.

Tests used:
[1] = target: T1, Hepatocyte growth factor receptor (Homo sapiens, UniProt P08581)
[2] = Antiproliferative activity against human GTL16 cells after 72 hrs; conditions: GTL 16, 72 h
[3] = target: Voltage-gated inwardly rectifying potassium channel KCNH2 (Homo sapiens, UniProt Q12809); experiment: Inhibition of Kv11.1 channel
[4] = Plasma clearance in rat at 2 mg/kg, iv; format: ADME, organism-based; set-up: dose 2 mg/kg, route intravenous
[5] = Volume of distribution at steady state in rat at 2 mg/kg, iv; format: ADME, organism-based; set-up: dose 2 mg/kg, route intravenous; conditions: in vivo, read-out: Vdss
[6] = Half life in rat at 2 mg/kg, iv; format: ADME, organism-based; set-up: dose 2 mg/kg, route intravenous; conditions: in vivo
[7] = Plasma clearance in rat at 2 mg/kg, iv and 4 mg/kg, po; format: ADME, organism-based
[8] = Inhibition of potassium channel IKr
[9] = Half life in rat at 2 mg/kg, iv and 4 mg/kg, po; format: ADME, organism-based; conditions: in vivo
[10] = target: T1, Hepatocyte growth factor receptor; experiment: Inhibition of c-MET overexpressed in human GTL-16 cells assessed as phosphorylation at C-terminal Y1349 after 2 hrs by Western blot analysis; format: cell-based
[11] = Oral bioavailability in rat at 4 mg/kg; format: ADME, organism-based; conditions: in vivo
[12] = Volume of distribution at steady state in rat at 2 mg/kg, iv and 4 mg/kg, po; format: ADME, organism-based; conditions: in vivo, read-out: Vdss
[13] = Volume of distribution at steady state in rat at 0.31 mg/kg, iv and 0.62 mg/kg, po; format: ADME, organism-based; conditions: in vivo, read-out: Vdss
[14] = Oral bioavailability in rat at 0.62 mg/kg; format: ADME, organism-based; conditions: in vivo
[15] = Half life in rat at 0.31 mg/kg, iv and 0.62 mg/kg, po; format: ADME, organism-based; conditions: in vivo
[16] = Plasma clearance in rat at 0.31 mg/kg, iv and 0.62 mg/kg, po; format: ADME, organism-based
[17] = target: Cytochrome P450 3A4 (Homo sapiens, UniProt P08684); experiment: Inhibition of CYP3A4; format: ADME
[18] = target: Cytochrome P450 2D6 (Homo sapiens, UniProt P10635); experiment: Inhibition of CYP2D6; format: ADME
[19] = target: Cytochrome P450 2C9 (Homo sapiens, UniProt P11712); experiment: Inhibition of CYP2C9; format: ADME
[20] = Solubility of the compound at pH 7.4; format: physicochemical; conditions: buffer
[21] = Lipophilicity, log P of the compound; format: physicochemical; conditions: octanol/water
[22] = Oral bioavailability in rat at 1 mg/kg; format: ADME, organism-based; conditions: in vivo
[23] = test system: Rattus norvegicus; experiment: Volume of distribution at steady state in rat at 1 mg/kg, iv and po; format: ADME, organism-based; set-up: dose 1 mg/kg, route oral; conditions: in vivo
[24] = Half life in rat at 1 mg/kg, iv and po; format: ADME, organism-based; set-up: dose 1 mg/kg, route oral; conditions: in vivo

IC50 [1]: > 10000 nM
SMILES: CS(=O)(=O)Nc1ccc2c(=O)c3cc(-c4ccccc4)cnc3ccc2c1

SMILES: CN(Cc1ccccc1)S(=O)(=O)Nc1ccc2ccc3ncc(-c4cnn(C)c4)cc3c(=O)c2c1
IC50 [2]: 50000 nM
IC50 [3]: > 30000 nM

clearance [4]: 39 mL/min/kg
Vd [5]: 2.4 L/kg
half-life [6]: 0.7 h
SMILES: CN(Cc1cnccn1)S(=O)(=O)Nc1ccc2ccc3ncc(-c4cnn(C)c4)cc3c(=O)c2c1
IC50 [2]: 1100 nM
IC50 [3]: 7100 nM

SMILES: CN(C)S(=O)(=O)Nc1ccc2ccc3ncc(-c4cnn(CC(F)CO)c4)cc3c(=O)c2c1 (racemic)
IC50 [2]: 270 nM

SMILES: CCCn1cc(-c2cnc3ccc4ccc(NS(=O)(=O)N(C)C)cc4c(=O)c3c2)cn1
IC50 [2]: 780 nM

clearance [7]: 40 mL/min/kg
half-life [9]: 0.5 h
SMILES: Cn1cc(-c2cnc3ccc4ccc(NS(C)(=O)=O)cc4c(=O)c3c2)cn1
IC50 [2]: 1900 nM
IC50 [8]: 330 nM
IC50 [3]: 10100 nM

SMILES: CN(C)S(=O)(=O)Nc1ccc2ccc3ncc(-c4cnn(CCCO)c4)cc3c(=O)c2c1
IC50 [2]: 370 nM

clearance [4]: 10.7 mL/min/kg
Vd [5]: 1.1 L/kg
half-life [6]: 1.3 h
SMILES: COCCCN(C)S(=O)(=O)Nc1ccc2ccc3ncc(-c4cnn(C)c4)cc3c(=O)c2c1
IC50 [2]: 1500 nM
IC50 [3]: > 30000 nM

SMILES: CN(C[C@H]1COCCO1)S(=O)(=O)Nc1ccc2ccc3ncc(-c4cnn(C)c4)cc3c(=O)c2c1
IC50 [2]: 2800 nM
IC50 [10]: 210 nM
IC50 [3]: > 30000 nM
IC50 [1]: 14 nM

SMILES: CCN1CCC(n2cc(-c3cnc4ccc5ccc(NS(=O)(=O)N(C)C)cc5c(=O)c4c3)cn2)CC1
IC50 [2]: 55 nM

IC50 [1]: > 10000 nM
SMILES: CS(=O)(=O)Nc1ccc2ccc3nccc(Cl)c3c(=O)c2c1

clearance [7]: 33.8 mL/min/kg
bioavailability [11]: 33%
half-life [9]: 0.9 h
Vd [12]: 2.5 L/kg
SMILES: CNS(=O)(=O)Nc1ccc2ccc3ncc(-c4cnn(C)c4)cc3c(=O)c2c1
IC50 [2]: 750 nM

Vd [13]: 1.1 L/kg
bioavailability [14]: 38%
half-life [15]: 1.2 h
clearance [16]: 11 mL/min/kg
SMILES: CN([C@H]1CCOC1)S(=O)(=O)Nc1ccc2ccc3ncc(-c4cnn(C)c4)cc3c(=O)c2c1
IC50 [2]: 570 nM
IC50 [3]: > 30000 nM

SMILES: CCN(CC)S(=O)(=O)Nc1ccc2ccc3ncc(-c4cnn(C)c4)cc3c(=O)c2c1
IC50 [2]: 2200 nM

SMILES: CN(C)CCCn1cc(-c2cnc3ccc4ccc(NS(=O)(=O)N(C)C)cc4c(=O)c3c2)cn1
IC50 [2]: 1100 nM

SMILES: Cn1cc(-c2cnc3ccc4ccc(NS(N)(=O)=O)cc4c(=O)c3c2)cn1
IC50 [2]: 990 nM
IC50 [3]: 4300 nM

IC50 [17]: > 50000 nM
clearance [7]: 24 mL/min/kg
IC50 [18]: > 50000 nM
IC50 [19]: > 50000 nM
bioavailability [11]: 2%
half-life [9]: 0.5 h
solubility [20]: 0.5 µg/mL (≈ 1.33 µM)
logP [21]: 3.15
SMILES: CS(=O)(=O)Nc1ccc2ccc3ncc(-c4ccccc4)cc3c(=O)c2c1
IC50 [2]: > 50000 nM
IC50 [3]: 290 nM

SMILES: CN(C)S(=O)(=O)Nc1ccc2ccc3ncc(-c4cnn(-c5ccccn5)c4)cc3c(=O)c2c1
IC50 [2]: 1300 nM

SMILES: CN(C)S(=O)(=O)Nc1ccc2ccc3ncc(-c4cnn(CC(=O)N5CCOCC5)c4)cc3c(=O)c2c1
IC50 [2]: 1700 nM

SMILES: CN(C)S(=O)(=O)Nc1ccc2ccc3ncc(-c4cnn(CCF)c4)cc3c(=O)c2c1
IC50 [2]: 610 nM

bioavailability [22]: 29%
Vdss [23]: 0.95 L/kg
half-life [24]: 3.3 h
SMILES: Cn1cc(-c2cnc3ccc4ccc(NS(=O)(=O)N5CCC5)cc4c(=O)c3c2)cn1
IC50 [2]: 1100 nM

SMILES: Cn1cc(-c2cnc3ccc4ccc(NS(=O)(=O)N5CCOCC5)cc4c(=O)c3c2)cn1
IC50 [2]: 11000 nM

SMILES: COCC(F)Cn1cc(-c2cnc3ccc4ccc(NS(=O)(=O)N(C)C)cc4c(=O)c3c2)cn1 (racemic)
IC50 [2]: 54 nM

clearance [4]: 2.9 mL/min/kg
Vd [5]: 0.41 L/kg
half-life [6]: 1.8 h
SMILES: Cn1cc(-c2cnc3ccc4ccc(NS(=O)(=O)N5CC(F)C5)cc4c(=O)c3c2)cn1
IC50 [2]: 2400 nM

SMILES: CN(C)S(=O)(=O)Nc1ccc2ccc3ncc(-c4cnn(C)c4)cc3c(=O)c2c1
IC50 [8]: > 30000 nM
IC50 [3]: > 30000 nM
